Test system: IL-1b
Test: Mouse BMDM IL-1b Assay
Assay type: cell-based
Conditions: Macrophage; C57BL6 bone marrow derived macrophages; 200 ng/mL Ultrapure LPS-B5 3 hours, compound 30 minutes, 5 mM ATP 45 minutes; mouse IL-1b ELISA of supernatant
Experimental: Example 8: Mouse BMDM IL-1b Assay
Mouse bone marrow cells from C57BL6 tibia and femur were culture in complete Isocov's Media supplemented with 20 ng/mL MCSF (BMDM media) at a density of 50 million cells/15 cm Petri dish. Fresh media was changed every 3 days, and bone marrow derived macrophages were collected, washed, and counted on day 7. Cells were seeded into 96 well plates at a density of 5×10^4 cells per well in 100 uL of BMDM media and cultured overnight. The cells were stimulated at 37° C. with 200 ng/mL Ultrapure LPS-B5 for 3 hours before pre-diluted compounds were added. 30 minutes after compound addition, 5 mM ATP was added for the secondary stimulation for 45 minutes. After stimulation, the plates were briefly spun down, and 50 uL of supernatant was harvested from each well. ELISA for mouse IL-1b was performed with 1:10 and 1:100 diluted supernatant using pre-coated kits. IL-1b concentrations were calculated based on pre-titrated standards, and compound inhibition IC50 is generated using the Levenberg Marquardt damped lease-square method.

| Structure (SMILES) | IC50 |
| --- | --- |
| CC(C)c1cccc(C(C)C)c1CC(=O)NS(=O)(=O)c1cc2c(o1)C1CCC(CC1)C2(C)O (stereo not shown) [Compound 38, 2-(2,6-diisopropylphenyl)-N-((4-hydroxy-4-methyl-5,6,7,8-tetrahydro-4H-5,8-ethanocyclohepta[b]furan-2-yl)sulfonyl)acetamide] | 100 to 1000 nM |
| C[C@@]1(O)c2cc(S(=O)(=O)NC(=O)Nc3c4c(cc5c3CCC5)CCC4)oc2[C@H]2CC[C@@H]1C2 [Compound 39, (4S,5R,8S)-N-((1,2,3,5,6,7-hexahydro-s-indacen-4-yl)carbamoyl)-4-hydroxy-4-methyl-5,6,7,8-tetrahydro-4H-5,8-methanocyclohepta[b]furan-2-sulfonamide] | 100 to 1000 nM |
| C[C@@]1(O)c2cc(S(=O)(=O)NC(=O)Nc3c4c(cc5c3CCC5)CCC4)oc2[C@@H]2CC[C@H]1C2 [Compound 41, (4S,5S,8R)-N-((1,2,3,5,6,7-hexahydro-s-indacen-4-yl)carbamoyl)-4-hydroxy-4-methyl-5,6,7,8-tetrahydro-4H-5,8-methanocyclohepta[b]furan-2-sulfonamide] | < 100 nM |
| C[C@]1(O)c2cc(S(=O)(=O)NC(=O)Nc3c4c(cc5c3CCC5)CCC4)oc2[C@@H]2CC[C@H]1C2 [Compound 42, (4R,5S,8R)-N-((1,2,3,5,6,7-hexahydro-s-indacen-4-yl)carbamoyl)-4-hydroxy-4-methyl-5,6,7,8-tetrahydro-4H-5,8-methanocyclohepta[b]furan-2-sulfonamide] | < 100 nM |
| C[C@]1(O)c2cc(S(=O)(=O)NC(=O)Nc3c4c(cc5c3CCC5)CCC4)oc2C2CCC1CC2 [Compound 44, (R)-N-((1,2,3,5,6,7-hexahydro-s-indacen-4-yl)carbamoyl)-4-hydroxy-4-methyl-5,6,7,8-tetrahydro-4H-5,8-ethanocyclohepta[b]furan-2-sulfonamide] | < 100 nM |
| O=C(Nc1c2c(cc3c1CCC3)CCC2)NS(=O)(=O)c1cc2c(o1)C1CCC(CC1)C2CO (stereo not shown) [Compound 46, N-((1,2,3,5,6,7-hexahydro-s-indacen-4-yl)carbamoyl)-4-(hydroxymethyl)-5,6,7,8-tetrahydro-4H-5,8-ethanocyclohepta[b]furan-2-sulfonamide] | < 100 nM |
| O=C(Nc1c2c(cc3c1CCC3)CCC2)NS(=O)(=O)c1cc2c(o1)[C@@H]1CC[C@@H](C1)C2O (stereo partly drawn) [Compound 50, (5S,8R)-N-((1,2,3,5,6,7-hexahydro-s-indacen-4-yl)carbamoyl)-4-hydroxy-5,6,7,8-tetrahydro-4H-5,8-methanocyclohepta[b]furan-2-sulfonamide] | < 100 nM |

Continued, values first:

| IC50 | Structure (SMILES) |
| --- | --- |
| < 100 nM | C[C@]1(O)c2cc(S(=O)(=O)NC(=O)Nc3c4c(cc5c3CCC5)CCC4)oc2[C@H]2CC[C@@H]1C2 [Compound 40, (4R,5R,8S)-N-((1,2,3,5,6,7-hexahydro-s-indacen-4-yl)carbamoyl)-4-hydroxy-4-methyl-5,6,7,8-tetrahydro-4H-5,8-methanocyclohepta[b]furan-2-sulfonamide] |
| < 100 nM | C[C@@]1(O)c2cc(S(=O)(=O)NC(=O)Nc3c4c(cc5c3CCC5)CCC4)oc2C2CCC1CC2 [Compound 43, (S)-N-((1,2,3,5,6,7-hexahydro-s-indacen-4-yl)carbamoyl)-4-hydroxy-4-methyl-5,6,7,8-tetrahydro-4H-5,8-ethanocyclohepta[b]furan-2-sulfonamide] |
| < 100 nM | CC1(O)c2cc(S(=O)(=O)NC(=O)Nc3c4c(cc5c3CCC5)CCC4)sc2C2CCC1CC2 (stereo not shown) [Compound 45, N-((1,2,3,5,6,7-hexahydro-s-indacen-4-yl)carbamoyl)-4-hydroxy-4-methyl-5,6,7,8-tetrahydro-4H-5,8-ethanocyclohepta[b]thiophene-2-sulfonamide] |
| < 100 nM | CC1(O)c2cc(S(=O)(=O)NC(=O)Nc3c4c(cc5c3CCC5)CCC4)sc2C2CCC1C2 (stereo not shown) [Compound 47, N-((1,2,3,5,6,7-hexahydro-s-indacen-4-yl)carbamoyl)-4-hydroxy-4-methyl-5,6,7,8-tetrahydro-4H-5,8-methanocyclohepta[b]thiophene-2-sulfonamide] |
| < 100 nM | O=C(Nc1c2c(cc3c1CCC3)CCC2)NS(=O)(=O)c1cc2c(s1)C1CCC(C1)C2O (stereo not shown) [Compound 48, N-((1,2,3,5,6,7-hexahydro-s-indacen-4-yl)carbamoyl)-4-hydroxy-5,6,7,8-tetrahydro-4H-5,8-methanocyclohepta[b]thiophene-2-sulfonamide] |
| 100 to 1000 nM | O=C(Nc1c2c(cc3c1CCC3)CCC2)NS(=O)(=O)c1cc2c(o1)[C@H]1CC[C@H](C1)C2O (stereo partly drawn) [Compound 49, (5R,8S)-N-((1,2,3,5,6,7-hexahydro-s-indacen-4-yl)carbamoyl)-4-hydroxy-5,6,7,8-tetrahydro-4H-5,8-methanocyclohepta[b]furan-2-sulfonamide] |

— patent US12351564B2, “NLRP3 modulators” (Zomagen Biosciences Ltd, priority 2019, dated 2025)
